Laboratory results from US12588677B2, “Herbicidal compositions comprising topramezone” (BASF SE, priority 2024, dated 2026).

Legend:
Assay type in all cases: in vivo
[1] = test system: Abutilon theophrasti (ABUTH); test: Post-emergence application in greenhouse trials; conditions: 7 DAT
Description: (§1) The culture containers used were plastic pots containing loamy sand with approximately 3.0% of humus as substrate. The seeds of the test plants were sown separately for each species.
(§2) For the post-emergence treatment, the test plants were grown to a plant height as indicated below, depending on the plant habit, and only then treated with the active compounds which had been suspended or emulsified in water. To this end, the test plants were either sown directly, and grown in the same containers, or they were first grown separately as seedlings and transplanted into the test containers a few days prior to treatment.
(§3) Depending on the species, the plants were kept at 10-25° C. and 20-35° C., respectively. The test period extended over 2 to 4 weeks. During this time, the plants were tended and their response to the individual treatments was evaluated.
(§4) Evaluation was carried out using a scale from 0 to 100. 100 means no emergence of the plants, or complete destruction of at least the above-ground parts, and 0 means no damage or normal course of growth. A good herbicidal activity is given at values of at least 70, and very good herbicidal activity is given at values of at least 85.
(§5) Herbicide A-1 and topramezone were, together with addition of 0.5 v/v % MSO (methylated sed oil) as adjuvant, formulated in water as distribution medium (water volume 200 l/ha) and sprayed with commercial flat fan nozzles.
(§6) Herbicide A-1 (342 g/l), topramezone (336 g/l) and DMTA-p (720 g/l) were, together with addition of 0.5 v/v % MSO (methylated sed oil) as adjuvant, formulated in water as distribution medium (water volume 200 l/ha) and sprayed with commercial flat fan nozzles.

Avena fatua (AVEFA) = test: Post-emergence application in greenhouse trials
Description: as §1, §2, §3, §4, §5, §6

[2] = test system: Brachiaria decumbens (BRADC (BRARU)); test: Post-emergence application in greenhouse trials
Description: as §1, §2, §3, §4, §5, §6

[3] = test system: Commelina benghalenis (COMBE); test: Post-emergence application in greenhouse trials
Description: as §1, §2, §3, §4, §5, §6

Glycine max (GLXMA) [4] = test: Post-emergence application in greenhouse trials; conditions: 7 DAT
Description: as §1, §2, §3, §4, §5, §6

Zea mays (ZEAMX) [5] = test: Post-emergence application in greenhouse trials
Description: as §1, §2, §3, §4, §5, §6

[6] = test system: Amaranthus tamariscinus (AMATA); test: Post-emergence application in greenhouse trials; conditions: 7 DAT
Description: as §1, §2, §3, §4, §5, §6

[7] = test system: Digitaria sanguinalis (DIGSA); test: Post-emergence application in greenhouse trials; conditions: 20 DAT
Description: as §1, §2, §3, §4, §5, §6

Eleusine indica (ELEIN) = test: Post-emergence application in greenhouse trials; conditions: 7 DAT
Description: as §1, §2, §3, §4, §5, §6

[8] = test system: Erigeron canadensis (ERICA); test: Post-emergence application in greenhouse trials; conditions: 20 DAT
Description: as §1, §2, §3, §4, §5, §6

Kochia scoparia (KCHSC) = test: Post-emergence application in greenhouse trials; conditions: 20 DAT
Description: as §1, §2, §3, §4, §5, §6

Setaria virids (SETVI) = test: Post-emergence application in greenhouse trials
Description: as §1, §2, §3, §4, §5, §6

[9] = test system: Abutilon theophrasti (ABUTH); test: Post-emergence application in field trials; conditions: height 10-12 cm
Source text: (§7) Post-Emergence Application of Herbicide A-1 (A-1) and Topramezone (B-1) in Field Trials
(§8) Herbicide A-1 (342 g/l) and topramezone (336 g/l) were, together with addition of 0.25 v/v % MSO (methylated sed oil) as adjuvant, formulated in water as distribution medium (water volume 200 l/ha) and sprayed with commercial flat fan nozzles.

[10] = test system: Digitaria sanguinalis (DIGSA); test: Post-emergence application in field trials; conditions: 21 DAT, height 10-15 cm
Source text: as §7, §8

Glycine max (GLXMA) [11] = test: Post-emergence application in field trials; conditions: height 7-11 cm, 7 DAT
Source text: as §7, §8

Hordeum vulgare (HORVX) = test: Post-emergence application in field trials; conditions: height 20-25 cm
Source text: as §7, §8

[12] = test system: Setaria verticillata (SETVE); test: Post-emergence application in field trials; conditions: height 8-16 cm
Source text: as §7, §8

Zea mays (ZEAMX) [13] = test: Post-emergence application in field trials; conditions: height 50-60 cm
Source text: as §7, §8

[14] = 7 DAT, growth stage 11, 120 g ai/ha
[15] = 7 DAT, growth stage 11, 2 g ai/ha
[16] = 20 DAT, growth stage 12, 0.5 g ai/ha
[17] = 20 DAT, growth stage 12, 1 g ai/ha
[18] = 7 DAT, growth stage 11, 3.125 g ai/ha

COC[C@H](C)N(C(=O)CCl)c1c(C)csc1C [C-23, dimethenamid-p (DMTA-p)]
% herbicidal activity ([1]; growth stage 15, 120 g ai/ha): 0% | % herbicidal activity (Avena fatua (AVEFA); [14]): 0% | % herbicidal activity (Avena fatua (AVEFA); 21 DAT, growth stage 11, 120 g ai/ha): 40% | % herbicidal activity [2, 14]: 10% | % herbicidal activity ([3]; 21 DAT, growth stage 13, 120 g ai/ha): 10% | % herbicidal activity (Glycine max (GLXMA) [4]; growth stage 18, 120 g ai/ha): 0% | % herbicidal activity (Zea mays (ZEAMX) [5]; 7 DAT, growth stage 12, 120 g ai/ha): 0% | % herbicidal activity (Zea mays (ZEAMX) [5]; 21 DAT, growth stage 12, 120 g ai/ha): 0%

CCOC(=O)COc1ccccc1Oc1nc(-n2c(=O)cc(C(F)(F)F)n(C)c2=O)c(F)cc1Cl [A-1, ethyl 2-[2-[[3-chloro-5-fluoro-6-[3-methyl-2,6-dioxo-4-(trifluoromethyl)pyrimidin-1-yl]-2-pyridyl]oxy]phenoxy]acetate]
% herbicidal activity ([1]; growth stage 15, 0.5 g ai/ha): 85% | % herbicidal activity ([1]; ABUTH, growth stage 13, A-1 0.25 g ai/ha): 10% | % herbicidal activity ([1]; ABUTH, growth stage 13, A-1 1 g ai/ha): 50% | % herbicidal activity ([6]; growth stage 14, A-1 1 g ai/ha): 80% | % herbicidal activity (Avena fatua (AVEFA); [15]): 55% | % herbicidal activity (Avena fatua (AVEFA); 21 DAT, growth stage 11, 2 g ai/ha): 30% | % herbicidal activity [2, 15]: 50% | % herbicidal activity ([2]; 20 DAT, growth stage 12, 0.25 g ai/ha): 5% | % herbicidal activity [2, 16]: 15% | % herbicidal activity [2, 17]: 30% | % herbicidal activity ([3]; 20 DAT, growth stage 11, 1 g ai/ha): 5% | % herbicidal activity ([3]; 21 DAT, growth stage 13, 1 g ai/ha): 80% | % herbicidal activity ([7]; growth stage 13, 0.25 g ai/ha): 5% | % herbicidal activity (Eleusine indica (ELEIN); growth stage 13, A-1 1 g ai/ha): 45% | % herbicidal activity ([8]; growth stage 19, 0.5 g ai/ha): 0% | % herbicidal activity ([8]; growth stage 19, 2 g ai/ha): 40% | % herbicidal activity (Glycine max (GLXMA) [4]; growth stage 18, 1 g ai/ha): 90% | % herbicidal activity (Kochia scoparia (KCHSC); growth stage 24, 0.25 g ai/ha): 0% | % herbicidal activity (Setaria virids (SETVI); [16]): 10% | % herbicidal activity (Setaria virids (SETVI); [17]): 15% | % herbicidal activity (Setaria virids (SETVI); SETVI, growth stage 12, A-1 1 g ai/ha, 7 DAT): 15% | % herbicidal activity (Setaria virids (SETVI); SETVI, growth stage 12, A-1 2 g ai/ha, 7 DAT): 25% | % herbicidal activity (Zea mays (ZEAMX) [5]; 7 DAT, growth stage 12, 2 g ai/ha): 60% | % herbicidal activity (Zea mays (ZEAMX) [5]; 21 DAT, growth stage 12, 2 g ai/ha): 40% | % herbicidal activity ([9]; 21 DAT, 18 g ai/ha): 92% | % herbicidal activity ([9]; 42 DAT, 18 g ai/ha): 90% | % herbicidal activity ([9]; ABUTH, A-1 18 g ai/ha, 7 DAT): 90% | % herbicidal activity ([10]; 12.5 g ai/ha): 70% | % herbicidal activity (Glycine max (GLXMA) [11]; A-1 18 g ai/ha): 93% | % herbicidal activity (Hordeum vulgare (HORVX); 21 DAT, 12.5 g ai/ha): 90% | % herbicidal activity (Hordeum vulgare (HORVX); 21 DAT, 18 g ai/ha): 95% | % herbicidal activity (Hordeum vulgare (HORVX); HORVX, A-1 12.5 g ai/ha, 7 DAT): 70% | % herbicidal activity ([12]; 21 DAT, 12.5 g ai/ha): 45% | % herbicidal activity ([12]; 42 DAT, 12.5 g ai/ha): 30% | % herbicidal activity (Zea mays (ZEAMX) [13]; 21 DAT, 12.5 g ai/ha): 70% | % herbicidal activity (Zea mays (ZEAMX) [13]; 21 DAT, 18 g ai/ha): 75% | % herbicidal activity (Zea mays (ZEAMX) [13]; 28 DAT, 12.5 g ai/ha): 50% | % herbicidal activity (Zea mays (ZEAMX) [13]; 28 DAT, 18 g ai/ha): 60%

Cc1c(C(=O)c2cnn(C)c2O)ccc(S(C)(=O)=O)c1C1=NOCC1 [B-1, topramezone]
% herbicidal activity ([1]; growth stage 15, 3.125 g ai/ha): 50% | % herbicidal activity ([1]; ABUTH, growth stage 13, B-1 3.12 g ai/ha): 45% | % herbicidal activity ([6]; growth stage 14, B-1 6.25 g ai/ha): 80% | % herbicidal activity (Avena fatua (AVEFA); [18]): 10% | % herbicidal activity (Avena fatua (AVEFA); 21 DAT, growth stage 11, 3.125 g ai/ha): 10% | % herbicidal activity [2, 18]: 50% | % herbicidal activity ([2]; 20 DAT, growth stage 12, 6.25 g ai/ha): 75% | % herbicidal activity ([3]; 20 DAT, growth stage 11, 6.25 g ai/ha): 10% | % herbicidal activity ([3]; 21 DAT, growth stage 13, 3.125 g ai/ha): 35% | % herbicidal activity ([7]; growth stage 13, 3.12 g ai/ha): 85% | % herbicidal activity (Eleusine indica (ELEIN); growth stage 13, B-1 3.12 g ai/ha): 80% | % herbicidal activity ([8]; growth stage 19, 3.12 g ai/ha): 25% | % herbicidal activity ([8]; growth stage 19, 6.25 g ai/ha): 55% | % herbicidal activity (Glycine max (GLXMA) [4]; growth stage 18, 3.125 g ai/ha): 20% | % herbicidal activity (Kochia scoparia (KCHSC); growth stage 24, 6.25 g ai/ha): 60% | % herbicidal activity (Setaria virids (SETVI); 20 DAT, growth stage 12, 3.12 g ai/ha): 70% | % herbicidal activity (Setaria virids (SETVI); SETVI, growth stage 12, B-1 6.25 g ai/ha, 7 DAT): 75% | % herbicidal activity (Zea mays (ZEAMX) [5]; 7 DAT, growth stage 12, 3.125 g ai/ha): 5% | % herbicidal activity (Zea mays (ZEAMX) [5]; 21 DAT, growth stage 12, 3.125 g ai/ha): 0% | % herbicidal activity ([9]; 21 DAT, 12.5 g ai/ha): 60% | % herbicidal activity ([9]; 21 DAT, 18 g ai/ha): 65% | % herbicidal activity ([9]; 42 DAT, 12.5 g ai/ha): 60% | % herbicidal activity ([9]; 42 DAT, 18 g ai/ha): 65% | % herbicidal activity ([9]; ABUTH, B-1 12.5 g ai/ha, 7 DAT): 50% | % herbicidal activity ([9]; ABUTH, B-1 18 g ai/ha, 7 DAT): 55% | % herbicidal activity ([10]; 18 g ai/ha): 40% | % herbicidal activity (Glycine max (GLXMA) [11]; B-1 12.5 g ai/ha): 45% | % herbicidal activity (Glycine max (GLXMA) [11]; B-1 18 g ai/ha): 45% | % herbicidal activity (Hordeum vulgare (HORVX); 21 DAT, 12.5 g ai/ha): 0% | % herbicidal activity (Hordeum vulgare (HORVX); 21 DAT, 18 g ai/ha): 10% | % herbicidal activity (Hordeum vulgare (HORVX); HORVX, B-1 18 g ai/ha, 7 DAT): 20% | % herbicidal activity ([12]; 21 DAT, 18 g ai/ha): 45% | % herbicidal activity ([12]; 42 DAT, 18 g ai/ha): 40% | % herbicidal activity (Zea mays (ZEAMX) [13]; 21 DAT, 12.5 g ai/ha): 0% | % herbicidal activity (Zea mays (ZEAMX) [13]; 21 DAT, 18 g ai/ha): 0% | % herbicidal activity (Zea mays (ZEAMX) [13]; 28 DAT, 12.5 g ai/ha): 0% | % herbicidal activity (Zea mays (ZEAMX) [13]; 28 DAT, 18 g ai/ha): 0%
